# Publication PMC10223347, “Acute Toxicity and Pharmacokinetic Profile of an EU-GMP-Certified Cannabis sativa L. in Rodents” (Pharmaceuticals, 2023)
# Experiments:
# [1] = Pharmacokinetic profile: cannabinoids in rat serum by LC-MS/MS, non-compartmental analysis; conditions: for amount identified and quantitated in serum samples: rats given doses of 5, 50, 300 and 600 mg/kg, LC-MS; for Tmax / AUC Inf / AUC Last / Cl / Cmax / T1/2 / Vd: rat serum
# Protocol: The pharmacokinetic profile of the EU-GMP-certified Cannabis sativa L. with 15.6% THC and <1% CBD was assessed using 4 dose levels, 5, 50, 300, and 600 mg/kg. Dose levels were chosen in accordance with OECD 417 guidelines being lower than 1000 mg/kg but still high enough to allow for the identification and measurement of natural cannabinoids in the serum. Each dose level group consisted of 6 female Sprague-Dawley rats (8–12 weeks, 200–300 g) housed, cared and treated in the same conditions as the animals involved in the acute toxicity study. After gavage delivery of the compound, blood samples were collected, through a cardiac puncture, at 15 min, 30 min, 1 h, 2 h, 3 h, 4 h, 8 h, 12 h, 24 h, 48 h, and 72 h, respectively. The collected blood samples were then allowed to clot for 30 min at room temperature and centrifuged at 2000× g for 15 min at 4 °C. The separated serum samples were transferred immediately in microcentrifuge tubes and stored at −20 °C until THC and THCA quantification using LC-MS analysis were performed.
# A method for simultaneous extraction and LC-MS/MS quantitation of 11 cannabinoids was developed and validated for the present study. Cannabinoid extraction from rat serum was performed according to the method described by Wakshlag et al., with modifications. Rat serum (40 μL) was mixed with 10 μL water: methanol (1:1) and 10 μL internal standard (200 ng/mL of CBD-d3) diluted in water: methanol (1:1). Proteins were precipitated by adding 80 μL ice-cold acetonitrile to each sample followed by vortex 2 min at 6 °C, 1000 rpm and centrifugation at 4000 rpm for 10 min at 4 °C. The supernatant (100 μL) was mixed with ultrapure water (100 μL) in another 1.5 mL microcentrifuge tube and centrifuged again at 4000 rpm for 10 min at 4 °C. The supernatant (100 μL) was transferred to another 1.5 mL microcentrifuge tube and placed in ice until LCMS analysis. Ten μL of the sample were injected into a Phenomenex Kinetex C18 (100 × 4.6 mm, 2.6 μm, 100 Å) HPLC separation column connected in the column compartment of an Agilent 1200 HPLC coupled to an Agilent 6410 electrospray-triple quadrupole mass spectrometer. A 10:1 post-column splitter was used. The column was equilibrated with mobile phase A (0.1% formic acid in water) and mobile phase B (0.1% formic acid in acetonitrile) at 50% B for 1 min. A linear gradient from 50% B to 90% B for 3 min was used and was held constant at 90% B for 6 min, then decreased to 50% B in 1 min and maintained at 50% B for 5 min. The flow rate was […], and the column temperature was 24 °C.
# The mass spectrometer was operated in positive mode. The source parameters were a capillary voltage of 4000 V, a gas of temperature 325 °C, a gas flow of 8 L/min, and a nebulizer of 35 psi. The parameters of the mass spectrometer for each time and scan segment and the retention time for each compound are presented in Table 3.
# The qualitative analysis of the chromatograms and mass spectra was performed by Agilent MassHunter Workstation Software Qualitative Analysis v.B.01.02 and the quantitative analysis by Agilent MassHunter Workstation Software Quantitative Analysis v.B.01.03. Linear calibration curves were obtained for all 11 cannabinoids using the relative response (peak area of each cannabinoid/peak area of internal standard) and the relative concentration (concentration of each cannabinoid/concentration of internal standard). A linear 7-point calibration curve with 1/×2 weighing and a concentration range of 5–1000 ng/mL in rat serum was employed for the quantitation of the serum samples collected in the present study. The analysis of carryover was performed by LC/MS analysis of a blank sample extracted from normal rat serum after LC/MS analysis of a sample extracted from rat serum fortified with 1000 ng/mL natural cannabinoids.
# [2] = system: seizure models with electric shocks; parameters: method as in PMID 34384142; conditions: doses of 10 and 30 mg/kg; cited from earlier work
# [3] = system: Scn1A mice; parameters: method as in PMID 34384142; conditions: cited from earlier work
# [4] = system: CB1; parameters: method as in PMID 28861508; conditions: relative to THC; cited from earlier work
# [5] = system: CB2; parameters: method as in PMID 28861508; conditions: relative to THC; cited from earlier work
# [6] = system: CB1; parameters: method as in PMID 28861508; conditions: suggests a weak agonist activity; cited from earlier work
# [7] = system: CB2; parameters: method as in PMID 28861508; conditions: cited from earlier work
# [8] = oral 5 mg/kg Cannabixir Medium Flos (0.78 mg Δ9-THCA-A + Δ9-THC)
# [9] = oral 50 mg/kg Cannabixir Medium Flos (7.8 mg Δ9-THCA-A + Δ9-THC)
# [10] = oral 300 mg/kg Cannabixir Medium Flos (46.8 mg Δ9-THCA-A + Δ9-THC)
# [11] = oral 600 mg/kg Cannabixir Medium Flos (93.6 mg Δ9-THCA-A + Δ9-THC)
smiles,measurement,setting,value
"CCCCCc1cc(O)c(C/C=C(\C)CCC=C(C)C)c(O)c1C(=O)O [CBGA, cannabigerolic acid]",amount identified and quantitated in serum samples,[1],high amounts
same,effect on seizure models with electric shocks,[2],pro-convulsive
same,frequency of convulsions,[3],increase frequency of convulsions
"CCCCCc1cc2c(c(O)c1C(=O)O)C=CC(C)(CCC=C(C)C)O2 (stereo not drawn) [CBCA, cannabichromenic acid]",amount identified and quantitated in serum samples,[1],low amounts
"C=C(C)[C@@H]1CCC(C)=C[C@H]1c1c(O)cc(CCCCC)c(C(=O)O)c1O [CBDA, cannabidiolic acid]",amount identified and quantitated in serum samples,[1],low amounts
"C=C(C)[C@@H]1CCC(C)=C[C@H]1c1c(O)cc(CCC)c(C(=O)O)c1O [CBDVA, cannabidivarinic acid]",frequency of convulsions,[3],increase frequency of convulsions
"CCCCCc1cc(O)c(C/C=C(\C)CCC=C(C)C)c(O)c1 [CBG, Cannabigerol]",frequency of convulsions,[3],increase frequency of convulsions
"CCCCCc1cc(O)c2c(c1)OC(C)(C)[C@@H]1CCC(C)=C[C@@H]21 [Δ9-THC, Δ9-tetrahydrocannabinol]",Tmax,[1]; [8],0 h
same,Tmax,[1]; [9],0 h
same,AUC Inf,[1]; [10],BQL
same,AUC Last,[1]; [10],BQL
same,Cl,[1]; [10],BQL
same,Cmax,[1]; [10],BQL
same,T1/2,[1]; [10],BQL
same,Tmax,[1]; [10],BQL
same,Vd,[1]; [10],BQL
same,AUC Inf,[1]; [11],287.2334 ng·h/mL
same,AUC Last,[1]; [11],284.342 ng·h/mL
same,Cl,[1]; [11],5431.12 mL/min/kg
same,Cmax,[1]; [11],34.916 ng/mL
same,T1/2,[1]; [11],7.080 h
same,Tmax,[1]; [11],0.25 h
same,Vd,[1]; [11],3328.818 L/kg
same,amount identified and quantitated in serum samples,[1],low amounts
"CCCc1cc2c(c(O)c1C(=O)O)C=CC(C)(CCC=C(C)C)O2 (stereo not drawn) [CBCVA, cannabichromevarinic acid]",frequency of convulsions,[3],increase frequency of convulsions
"CCCCCc1cc2c(c(O)c1C(=O)O)C1C=C(C)CCC1C(C)(C)O2 (stereo not drawn) [Δ9-THCA-A, Δ9-tetrahydrocannabinolic acid]",AUC Inf,[1]; [8],260.802 ng·h/mL
same,AUC Last,[1]; [8],197.236 ng·h/mL
same,Cmax,[1]; [8],42.425 ng/mL
same,T1/2,[1]; [8],5.3374 h
same,Tmax,[1]; [8],3 h
same,Vd,[1]; [8],23.0298 L/kg
same,AUC Inf,[1]; [9],3172.8488 ng·h/mL
same,AUC Last,[1]; [9],3163.1937 ng·h/mL
same,Cl,[1]; [9],40.972 mL/min/kg
same,Cmax,[1]; [9],404.16 ng/mL
same,T1/2,[1]; [9],5.4189 h
same,Tmax,[1]; [9],3 h
same,Vd,[1]; [9],19.2193 L/kg
same,AUC Inf,[1]; [10],"13,544.792 h*ng/mL"
same,AUC Last,[1]; [10],"13,323.57 h*ng/mL"
same,Cl,[1]; [10],57.587 mL/min/kg
same,Cmax,[1]; [10],2787.617 ng/mL
same,T1/2,[1]; [10],10.291 h
same,Tmax,[1]; [10],0.5 h
same,Vd,[1]; [10],51.298 L/kg
same,AUC Inf,[1]; [11],"43,261.689 h*ng/mL"
same,AUC Last,[1]; [11],"40,371.48 h*ng/mL"
same,Cl,[1]; [11],36.058 mL/min/kg
same,Cmax,[1]; [11],"10,563.4 ng/mL"
same,T1/2,[1]; [11],10.988 h
same,Tmax,[1]; [11],0.25 h
same,Vd,[1]; [11],34.298 L/kg
same,amount identified and quantitated in serum samples,[1],high amounts
same,"binding for CB1, times smaller than that of THC",[4],at least 62 times
same,"binding for CB2, times smaller than THC",[5],≥ 125 times
same,efficacy at CB1 (AMPc),[6],slightly inhibited AMPc
same,efficacy for CB2,[7],no efficacy
